Measured values from publication PMC7569237 (Translational Oncology, 2020).

Assay: Plasma and tumor levels in MIA PaCa-2 tumor-bearing nude mice
Format: in vivo
Conditions: MIA PaCa-2-bearing mice, CPT-11 10 mg/kg iv; SN38 = released from CPT-11

| Time within which concentrations rapidly decreased in plasma and tumor | Structure (SMILES) |
| --- | --- |
| ≤ 48 h | CCc1c2c(nc3ccc(OC(=O)N4CCC(N5CCCCC5)CC4)cc13)-c1cc3c(c(=O)n1C2)COC(=O)[C@]3(O)CC [CPT-11, 7-ethyl-10-[4-(1-piperidino)-1-piperidino]carbonyloxycamptothecin] |
| ≤ 48 h | CCc1c2c(nc3ccc(O)cc13)-c1cc3c(c(=O)n1C2)COC(=O)[C@]3(O)CC [SN38, 7-ethyl-10-hydroxycamptothecin] |
